The results in this text go back to BindingDB's records for doi:10.1016/j.bmcl.2006.03.040 (Merck Research Laboratories, 2006).

For assay [1], the target named is Kinesin-like protein KIF11 (Homo sapiens, UniProt P52732). Description: Kinesin ATPase In Vitro Assay. The settings on record: pH 7; 23 °C. As to the method: The kinesin motor domain is incubated with microtubules, 1 mM ATP (1: 1 MgCl2 : Na-ATP), and compound at 23°C in buffer. After reaction was terminated, free ph osphate from the ATP hydrolysis reaction is measured via a quinaldine red/ammoni um molybdate assay. The absorbance of the phospho-molybdate complex is […] Human poly-histidine tagged KSP motor domain was cloned, and protein was expressed in E. coli.
Chain of Kinesin-like protein KIF11 (P52732 whole entry, looked up, the tested form may be a part): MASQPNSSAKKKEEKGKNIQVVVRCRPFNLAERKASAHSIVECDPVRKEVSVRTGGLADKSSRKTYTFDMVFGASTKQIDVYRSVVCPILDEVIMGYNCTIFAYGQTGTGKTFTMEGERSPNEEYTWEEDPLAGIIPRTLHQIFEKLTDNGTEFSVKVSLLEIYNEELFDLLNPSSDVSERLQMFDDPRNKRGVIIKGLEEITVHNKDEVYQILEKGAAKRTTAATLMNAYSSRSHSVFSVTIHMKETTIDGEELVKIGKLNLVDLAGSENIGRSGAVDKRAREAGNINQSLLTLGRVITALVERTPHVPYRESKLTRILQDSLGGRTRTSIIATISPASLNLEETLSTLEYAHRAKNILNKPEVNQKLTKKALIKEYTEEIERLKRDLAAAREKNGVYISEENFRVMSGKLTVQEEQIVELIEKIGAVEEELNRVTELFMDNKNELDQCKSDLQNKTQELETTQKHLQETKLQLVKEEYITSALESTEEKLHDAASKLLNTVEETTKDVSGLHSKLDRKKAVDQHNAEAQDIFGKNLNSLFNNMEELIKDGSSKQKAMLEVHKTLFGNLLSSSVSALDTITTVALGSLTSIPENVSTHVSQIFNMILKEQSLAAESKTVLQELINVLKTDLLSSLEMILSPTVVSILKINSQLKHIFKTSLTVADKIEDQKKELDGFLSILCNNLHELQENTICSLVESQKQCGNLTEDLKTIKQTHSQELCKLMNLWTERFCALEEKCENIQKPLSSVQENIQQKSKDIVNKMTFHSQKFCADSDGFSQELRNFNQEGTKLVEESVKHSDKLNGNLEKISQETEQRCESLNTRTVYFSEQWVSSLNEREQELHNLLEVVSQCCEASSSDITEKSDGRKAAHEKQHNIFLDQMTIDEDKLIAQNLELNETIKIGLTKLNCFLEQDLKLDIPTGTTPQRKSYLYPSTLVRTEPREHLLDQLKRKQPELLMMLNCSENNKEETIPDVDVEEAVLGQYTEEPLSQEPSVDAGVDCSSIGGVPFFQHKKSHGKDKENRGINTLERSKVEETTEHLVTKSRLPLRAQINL

Assay [2] concerns the target Potassium voltage-gated channel subfamily H member 2 (Homo sapiens, UniProt Q12809). Kind of assay: hERG Radioligand Competition Assay. The settings on record: pH 7.4; 22 °C. As to the method:
The hERG IC50 values were determined by radioligand competition experiments using membrane preparations from human embryonic kidney cells that stably express hERG.
A general note: The hERG channel carries a current that helps repolarise heart muscle cells.

Molecules are shown by their SMILES.

Chain of Potassium voltage-gated channel subfamily H member 2 (Q12809 whole entry): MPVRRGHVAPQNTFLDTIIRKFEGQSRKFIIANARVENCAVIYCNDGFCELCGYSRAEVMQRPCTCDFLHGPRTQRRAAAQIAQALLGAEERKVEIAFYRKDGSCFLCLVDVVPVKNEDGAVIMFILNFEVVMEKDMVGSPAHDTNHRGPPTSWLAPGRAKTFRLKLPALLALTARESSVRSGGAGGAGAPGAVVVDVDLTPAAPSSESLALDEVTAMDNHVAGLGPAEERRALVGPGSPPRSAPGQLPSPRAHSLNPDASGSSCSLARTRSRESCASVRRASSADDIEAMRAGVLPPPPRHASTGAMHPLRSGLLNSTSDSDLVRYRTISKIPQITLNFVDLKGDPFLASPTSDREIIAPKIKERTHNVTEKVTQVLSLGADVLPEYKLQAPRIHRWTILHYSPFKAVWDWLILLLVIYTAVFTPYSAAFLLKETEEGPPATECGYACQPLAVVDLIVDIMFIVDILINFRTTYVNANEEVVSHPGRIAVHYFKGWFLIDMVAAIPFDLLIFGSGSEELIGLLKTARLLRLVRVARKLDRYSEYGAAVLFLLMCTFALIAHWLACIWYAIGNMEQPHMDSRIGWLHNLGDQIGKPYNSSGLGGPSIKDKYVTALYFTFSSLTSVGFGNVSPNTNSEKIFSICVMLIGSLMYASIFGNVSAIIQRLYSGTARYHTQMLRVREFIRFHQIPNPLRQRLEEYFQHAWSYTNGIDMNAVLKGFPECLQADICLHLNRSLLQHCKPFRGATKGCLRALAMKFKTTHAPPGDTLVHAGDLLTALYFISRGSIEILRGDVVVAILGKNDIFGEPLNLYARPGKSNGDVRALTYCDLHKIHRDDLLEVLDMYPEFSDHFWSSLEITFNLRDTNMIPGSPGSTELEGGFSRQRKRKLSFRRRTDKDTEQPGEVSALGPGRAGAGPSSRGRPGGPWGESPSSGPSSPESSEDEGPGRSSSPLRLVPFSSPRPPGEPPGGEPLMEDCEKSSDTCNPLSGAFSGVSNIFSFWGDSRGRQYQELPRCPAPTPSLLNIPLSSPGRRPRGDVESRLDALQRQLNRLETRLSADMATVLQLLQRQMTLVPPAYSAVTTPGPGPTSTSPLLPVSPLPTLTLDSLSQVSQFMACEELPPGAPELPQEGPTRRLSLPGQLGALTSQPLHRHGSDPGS

Turning to `CNC(=O)N1N=C(c2cc(F)ccc2F)CC1c1ccccc1` (stereo not drawn), 3.14 µM corresponded to half-maximal inhibition in assay [1] (IC50).

For the compound `CN(C)C(=O)N1N=C(c2cc(F)ccc2F)C[C@@]1(CCCN)c1ccccc1` [(5S)-5-(3-aminopropyl)-3-(2,5-difluorophenyl)-N,N-dimethyl-5-phenyl-4,5-dihydro-1H-pyrazole-1-carboxamide], in assay [2], the IC50 (usually the concentration that inhibits the measured activity by half) was 19.3 µM.

`CC(=O)N1N=C(c2ccccc2Cl)C[C@H]1c1cccc(O)c1` [1-[(5S)-3-(2-chlorophenyl)-5-(3-hydroxyphenyl)-4,5-dihydro-1H-pyrazol-1-yl]ethan-1-one] displayed an IC50 in assay [1] of 0.45 µM.
